# Reference: patent US10065963B2 (Incyte Corporation, priority 2015, dated 2018)
# Structures can show the parent of a compound that is named as a salt. Where two headings read alike, the source gives them in different places.
# Experiments:
# [1] = biological target: human JAK1 (a.a. 837-1142) (Homo sapiens, UniProt P23458); assay: In vitro JAK kinase assay (JAK1); type: biochemical; conditions: 1 mM ATP
# [2] = biological target: human JAK2 (a.a. 828-1132) (Homo sapiens (Human), UniProt O60674); assay: In vitro JAK kinase assay (JAK2); type: biochemical; conditions: IC50 ratio, 1 mM ATP
# Sequence of human JAK2 (a.a. 828-1132) (O60674 828-1132): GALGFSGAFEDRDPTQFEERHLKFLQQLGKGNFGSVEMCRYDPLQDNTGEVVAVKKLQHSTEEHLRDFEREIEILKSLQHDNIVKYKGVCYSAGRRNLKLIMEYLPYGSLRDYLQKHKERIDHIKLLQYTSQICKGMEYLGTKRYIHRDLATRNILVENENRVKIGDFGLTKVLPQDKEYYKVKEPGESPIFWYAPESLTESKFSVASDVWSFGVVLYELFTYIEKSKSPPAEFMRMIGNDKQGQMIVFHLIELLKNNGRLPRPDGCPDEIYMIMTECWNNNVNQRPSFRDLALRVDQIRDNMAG
# [3] = biological target: PI3Kγ (p110γ) Recombinant Human Protein (Homo sapiens (Human), UniProt P48736); assay: PI3K-γ scintillation proximity assay; type: biochemical; conditions: 2 μM ATP, 20 μM PIP2
# Sequence of PI3Kγ (p110γ) Recombinant Human Protein (P48736 whole entry): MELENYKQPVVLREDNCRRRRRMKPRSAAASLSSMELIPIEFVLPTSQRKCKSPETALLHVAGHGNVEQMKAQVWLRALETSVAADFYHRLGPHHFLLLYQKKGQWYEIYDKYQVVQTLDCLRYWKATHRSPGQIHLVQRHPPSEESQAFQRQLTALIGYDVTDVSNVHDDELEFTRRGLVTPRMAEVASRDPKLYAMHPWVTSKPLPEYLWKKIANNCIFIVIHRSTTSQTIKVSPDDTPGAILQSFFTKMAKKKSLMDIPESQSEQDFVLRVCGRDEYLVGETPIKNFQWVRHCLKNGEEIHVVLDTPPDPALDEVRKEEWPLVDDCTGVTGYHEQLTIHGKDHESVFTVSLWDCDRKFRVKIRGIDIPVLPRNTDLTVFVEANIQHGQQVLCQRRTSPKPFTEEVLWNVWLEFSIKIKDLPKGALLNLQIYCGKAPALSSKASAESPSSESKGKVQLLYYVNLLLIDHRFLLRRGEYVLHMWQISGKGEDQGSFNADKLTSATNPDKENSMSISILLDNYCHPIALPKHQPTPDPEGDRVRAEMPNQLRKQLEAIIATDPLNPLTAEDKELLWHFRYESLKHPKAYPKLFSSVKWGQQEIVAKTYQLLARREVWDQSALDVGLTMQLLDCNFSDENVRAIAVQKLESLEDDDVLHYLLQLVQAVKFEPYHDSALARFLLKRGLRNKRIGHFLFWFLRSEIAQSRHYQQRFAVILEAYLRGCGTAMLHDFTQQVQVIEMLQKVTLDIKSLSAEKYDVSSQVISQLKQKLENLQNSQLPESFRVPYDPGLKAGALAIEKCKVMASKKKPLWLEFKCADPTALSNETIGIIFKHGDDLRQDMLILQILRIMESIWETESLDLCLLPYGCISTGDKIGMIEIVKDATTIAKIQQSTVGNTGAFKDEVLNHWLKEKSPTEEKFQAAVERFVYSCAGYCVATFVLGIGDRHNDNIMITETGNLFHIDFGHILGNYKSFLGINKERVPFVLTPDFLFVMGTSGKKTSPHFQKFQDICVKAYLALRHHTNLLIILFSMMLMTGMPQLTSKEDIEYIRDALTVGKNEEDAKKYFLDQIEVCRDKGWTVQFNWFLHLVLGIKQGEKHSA
# [4] = biological target: PI3Kδ (p110δ/p85α) Recombinant Human Protein (Homo sapiens (Human), UniProt O00329); assay: PI3Kδ scintillation proximity assay; type: biochemical; conditions: 2 μM ATP, 20 μM PIP2
# Sequence of PI3Kδ (p110δ/p85α) Recombinant Human Protein (O00329 whole entry): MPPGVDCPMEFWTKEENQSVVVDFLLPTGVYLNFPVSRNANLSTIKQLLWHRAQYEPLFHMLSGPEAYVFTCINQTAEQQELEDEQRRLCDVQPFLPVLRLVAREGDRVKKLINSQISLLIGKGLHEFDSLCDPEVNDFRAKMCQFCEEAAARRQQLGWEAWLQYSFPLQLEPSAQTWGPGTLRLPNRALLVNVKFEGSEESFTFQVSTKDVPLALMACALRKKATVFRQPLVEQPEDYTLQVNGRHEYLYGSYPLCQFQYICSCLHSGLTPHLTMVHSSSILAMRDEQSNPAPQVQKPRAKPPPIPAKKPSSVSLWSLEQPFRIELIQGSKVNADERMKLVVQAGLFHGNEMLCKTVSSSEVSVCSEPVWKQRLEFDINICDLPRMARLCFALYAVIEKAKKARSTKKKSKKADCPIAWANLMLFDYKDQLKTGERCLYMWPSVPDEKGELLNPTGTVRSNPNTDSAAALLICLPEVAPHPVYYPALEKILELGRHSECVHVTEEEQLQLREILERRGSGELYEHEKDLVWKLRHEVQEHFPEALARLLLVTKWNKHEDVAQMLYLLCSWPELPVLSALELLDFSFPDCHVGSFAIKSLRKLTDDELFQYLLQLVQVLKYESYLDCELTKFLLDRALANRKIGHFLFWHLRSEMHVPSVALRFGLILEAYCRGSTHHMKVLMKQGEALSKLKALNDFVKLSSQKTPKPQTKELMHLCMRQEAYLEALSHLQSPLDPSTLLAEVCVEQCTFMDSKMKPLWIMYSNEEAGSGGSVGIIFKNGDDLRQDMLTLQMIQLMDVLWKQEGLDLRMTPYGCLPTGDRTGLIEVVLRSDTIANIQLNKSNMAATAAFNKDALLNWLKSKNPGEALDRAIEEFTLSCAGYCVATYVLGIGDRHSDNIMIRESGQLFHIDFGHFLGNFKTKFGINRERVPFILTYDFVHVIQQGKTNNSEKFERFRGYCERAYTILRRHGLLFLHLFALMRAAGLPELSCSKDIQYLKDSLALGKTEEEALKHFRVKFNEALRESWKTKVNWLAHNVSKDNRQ
# Sequence of PI3Kδ (p110δ/p85α) Recombinant Human Protein (P27986 whole entry partner): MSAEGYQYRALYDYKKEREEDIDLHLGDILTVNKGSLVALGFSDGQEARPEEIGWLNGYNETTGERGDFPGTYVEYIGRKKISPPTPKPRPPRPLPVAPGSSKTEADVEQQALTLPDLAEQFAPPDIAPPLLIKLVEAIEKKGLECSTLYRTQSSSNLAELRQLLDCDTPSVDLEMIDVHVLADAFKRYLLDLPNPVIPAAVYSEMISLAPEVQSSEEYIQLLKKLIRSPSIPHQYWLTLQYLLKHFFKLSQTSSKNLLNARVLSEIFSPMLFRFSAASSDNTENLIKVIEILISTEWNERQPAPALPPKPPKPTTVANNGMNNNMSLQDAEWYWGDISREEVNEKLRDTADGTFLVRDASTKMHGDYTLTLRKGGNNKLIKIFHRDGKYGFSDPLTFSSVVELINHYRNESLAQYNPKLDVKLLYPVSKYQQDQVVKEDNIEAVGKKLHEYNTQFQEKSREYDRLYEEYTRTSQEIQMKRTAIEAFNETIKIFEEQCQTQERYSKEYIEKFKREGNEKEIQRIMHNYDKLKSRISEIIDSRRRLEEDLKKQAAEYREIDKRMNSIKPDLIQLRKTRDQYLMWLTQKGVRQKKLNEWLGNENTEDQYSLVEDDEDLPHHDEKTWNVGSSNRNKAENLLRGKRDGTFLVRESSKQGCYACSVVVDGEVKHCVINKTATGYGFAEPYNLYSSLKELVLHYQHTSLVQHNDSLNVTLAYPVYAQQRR
# [5] = system: Phosphorylated Ribosomal Protein S6 (RPS6) in THP-1 cells; assay: THP-1 RPS6 ELISA assay; type: cell-based, human; conditions: 10 nM MCP-1, read-out: PI3Kγ_THP1_RPS6_ELISA IC50
# [6] = Homo sapiens, THP-1, THP-1 cells
SMILES,IC50 [1] [nM],JAK2/JAK1 [2],IC50 [3] [nM],IC50 [4] [nM],"IC50 [5, 6] [nM]",IC50 ([5]; THP-1 cells) [nM]
"N#CCC(C1CCN(c2cccc(Cl)n2)C1)n1cc(-c2ncnc3[nH]ccc23)cn1 (single isomer, unassigned) [Example 3, 3-[1-(6-chloropyridin-2-yl)pyrrolidin-3-yl]-3-[4-(7H-pyrrolo[2,3-d]pyrimidin-4-yl)-1H-pyrazol-1-yl]propanenitrile]",< 10,>10,–,–,–,–
"Nc1nn2cccnc2c1C(=O)NCc1cc(Cl)c2cncn2c1N1CCS(=O)(=O)CC1 [Example 166, 2-Amino-N-{[8-chloro-5-(1,1-dioxidothiomorpholin-4-yl)imidazo[1,5-a]pyridin-6-yl]methyl}pyrazolo[1,5-a]pyrimidine-3-carboxamide trifluoroacetate salt]",–,–,< 100,< 2000,< 1000,–
"Nc1nn2cccnc2c1C(=O)NCc1cc(Cl)c2cncn2c1N1CCCC1 [Example 171, 2-Amino-N-((8-chloro-5-(pyrrolidin-1-yl)imidazo[1,5-a]pyridin-6-yl)methyl)pyrazolo[1,5-a]pyrimidine-3-carboxamide trifluoroacetate salt]",–,–,< 100,< 500,> 1000,–
"Nc1nn2cccnc2c1C(=O)NCc1cc(Cl)c2c(Cl)ncn2c1N1CCCC1 [Example 172, 2-Amino-N-((1,8-dichloro-5-(pyrrolidin-1-yl)imidazo[1,5-a]pyridin-6-yl)methyl)pyrazolo[1,5-a]pyrimidine-3-carboxamidetrifluoroacetate salt]",–,–,< 100,< 500,< 1000,–
"N#Cc1ncn2c(N3CCCC3)c(CNC(=O)c3c(N)nn4cccnc34)cc(Cl)c12 [Example 173, 2-Amino-N-((8-chloro-1-cyano-5-(pyrrolidin-1-yl)imidazo[1,5-a]pyridin-6-yl)methyl)pyrazolo[1,5-a]pyrimidine-3-carboxamide trifluoroacetate salt]",–,–,< 500,< 2000,> 1000,–
"CCC(NC(=O)c1c(N)nn2cccnc12)c1cc(Cl)c2c(C#N)ncn2c1N1CCS(=O)(=O)C(C)C1 (centres unmarked) [Example 175, 2-Amino-N-(1-(8-chloro-1-cyano-5-(2-methyl-1,1-dioxidothiomorpholino)imidazo[1,5-a]pyridin-6-yl)propyl)pyrazolo[1,5-a]pyrimidine-3-carboxamide trifluoroacetate salt]",–,–,< 100,< 2000,< 500,–

# The next lines start with the values.
IC50 [1] [nM],JAK2/JAK1 [2],IC50 [3] [nM],IC50 [4] [nM],"IC50 [5, 6] [nM]",IC50 ([5]; THP-1 cells) [nM],SMILES
–,–,< 100,< 2000,–,> 1000,"CC1(C)CN(c2c(CNC(=O)c3c(N)nn4cccnc34)cc(Cl)c3cncn23)CCS1(=O)=O [Example 168, 2-Amino-N-((8-chloro-5-(2,2-dimethyl-1,1-dioxido-thiomorpholino)imidazo[1,5-a]pyridin-6-yl)methyl) pyrazolo[1,5-a] pyrimidine-3-carboxamide trifluoroacetate salt]"
–,–,< 100,< 2000,–,> 1000,"CC1(C)CN(c2c(CNC(=O)c3c(N)nn4cccnc34)cc(Cl)c3c(Cl)ncn23)CCS1(=O)=O [Example 170, 2-Amino-N-((1,8-dichloro-5-(2,2-dimethyl-1,1-dioxidothio-morpholino)imidazo [1,5-a]pyridin-6-yl)methyl) pyrazolo[1,5-a] pyrimidine-3-carboxamide trifluoroacetate salt]"
–,–,< 100,< 2000,> 1000,–,"CC1CN(c2c(CNC(=O)c3c(N)nn4cccnc34)cc(Cl)c3c(C#N)ncn23)CCS1(=O)=O (centres unmarked) [Example 174, 2-Amino-N-((8-chloro-1-cyano-5-(2-methyl-1,1-dioxidothiomorpholino)imidazo[1,5-a]pyridin-6-yl)methyl)pyrazolo[1,5-a]pyrimidine-3-carboxamide trifluoroacetate salt]"
–,–,< 100,< 2000,< 500,–,"CC1CN(c2c(C(NC(=O)c3c(N)nn4cccnc34)C3CC3)cc(Cl)c3c(C#N)ncn23)CCS1(=O)=O (centres unmarked) [Example 176, 2-Amino-N-((8-chloro-1-cyano-5-(2-methyl-1,1-dioxidothio-morpholino)imidazo [1,5-a]pyridin-6-yl)(cyclopropyl)methyl)pyrazolo [1,5-a]pyrimidine-3-carboxamide trifluoroacetate salt]"
–,–,< 100,≥ 2000,< 1000,–,"CC1CN(c2c(C(NC(=O)c3c(N)nn4cccnc34)C(F)(F)F)cc(Cl)c3c(C#N)ncn23)CCS1(=O)=O (centres unmarked) [Example 177, 2-Amino-N-(1-(8-chloro-1-cyano-5-(2-methyl-1,1-dioxidothiomorpholino)imidazo[1,5-a]pyridin-6-yl)-2,2,2-trifluoroethyl)pyrazolo[1,5-a]pyrimidine-3-carboxamide trifluoroacetate salt]"
–,–,< 100,< 100,–,< 500,"CCC(NC(=O)c1c(N)nn2cccnc12)c1cc(Cl)c2cncn2c1N1CCS(=O)(=O)CC1 (centres unmarked) [Example 179, 2-Amino-N-{1-[8-chloro-5-(1,1-dioxidothio-morpholin-4-yl)imidazo[1,5-a]pyridin-6-yl]propyl} pyrazolo[1,5-a] pyrimidine-3-carboxamide trifluoroacetate salt]"
